In experiment [1] the test system is human multiple myeloma cell line, OPM-2. Description: Cell viability assay (OPM-2 10 FBS), CellTiter-Glo. The format is cell-based. To be noted: Homo sapiens, OPM-2, 16 h. In outline:
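Cells were seeded at 3000 cells/well in RPMI 1640 with 10% FBS and exposed to serially diluted compounds for 16 h at 37 °C, 5% CO2.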
A general note: ATP-based viability assays read luminescence as a measure of living cells.

The target in experiment [2] is recombinant human Mcl-1 (residues 171-327) / Bim interaction (Homo sapiens (Human), UniProt Q07820). Description: biochemical. Type of experiment: binding. To be noted: read-out: Mcl-1 HTRF IC50. (In general: In TR-FRET formats the signal depends on donor and acceptor labels being close together.)
recombinant human Mcl-1 (residues 171-327) / Bim interaction, sequence (Q07820 171-327): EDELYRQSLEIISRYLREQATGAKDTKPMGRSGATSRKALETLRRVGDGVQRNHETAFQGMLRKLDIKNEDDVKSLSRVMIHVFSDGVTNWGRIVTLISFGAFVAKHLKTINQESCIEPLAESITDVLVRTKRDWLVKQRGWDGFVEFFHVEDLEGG
Where [3] appears, read: read-out: OPM-2 10% FBS IC50 IP, OPM-2 cells, 10% FBS, 16 h, CellTiter-Glo.
Setting [4] is: TR-FRET, Mcl-1(171-327) / biotin-Bim (51-76).

By IC50 is commonly meant the concentration that gives 50% inhibition.

Molecules are shown by their SMILES. Where two headings read alike, the source gives them in different places.

Consider `C[C@@H]1[C@@H](C)C/C=C/[C@@](C)(OCCN2CCOCC2)[C@@H]2CC[C@H]2CN2C[C@@]3(CCCc4cc(Cl)ccc43)COc3ccc(cc32)C(=O)NS1(=O)=O` [Example 100467, (1S,3′R,6′R,7′R,8′E,11′S,12′R)-6-chloro-7′,11′,12′-trimethyl-7′-(2-(4-morpholinyl)ethoxy)-3,4-dihydro-2H,15′H-spiro[naphthalene-1,22′-[20]oxa[13]thia[1,14]diazatetracyclo [14.7.2.0~3,6~.0~19,24~]pentacosa[8,16,18,24]tetraen]-15′-one 13′,13′-dioxide], for which the IC50 in experiment [1] (setting [3]) is 516 nM; in experiment [2] (setting [4]), 0.303 nM.

Regarding `CCCO[C@]1(CN2CCN3CCOC[C@@H]3C2)/C=C/C[C@H](C)[C@@H](C)S(=O)(=O)NC(=O)c2ccc3c(c2)N(C[C@@H]2CC[C@H]21)C[C@@]1(CCCc2cc(Cl)ccc21)CO3` [Example 351, (1S,3′R,6′R,7′R,8′E,11′S,12′R)-6-chloro-7′-((9aS)-hexahydropyrazino[2,1-c][1,4]oxazin-8(1H)-ylmethyl)-11′,12′-dimethyl-7′-propoxy-3,4-dihydro-2H,15′H-spiro[naphthalene-1,22′-[20]oxa[13]thia[1,14]diazatetracyclo [14.7.2.0~3,6~.0~19,24~]pentacosa[8,16,18,24]tetraen]-15′-one 13′,13′-dioxide], the IC50 in experiment [1] (read-out: OPM-2 10% FBS IC50 IP, OPM-2 cells, 10% FBS, 16 h incubation) came to 196 nM; in experiment [2] (0.1 nM Mcl-1(171-327), 0.05 nM biotin-Bim (51-76)) it was 0.121 nM.

For the compound `CO[C@@]1(CCN2CCN3CCOC[C@@H]3C2)/C=C/C[C@H](C)[C@@H](C)S(=O)(=O)NC(=O)c2ccc3c(c2)N(C[C@@H]2CC[C@H]21)C[C@@]1(CCCc2cc(Cl)ccc21)CO3` [Example 100429, (1S,3′R,6′R,7′S,8′E,11′S,12′R)-6-chloro-7′-(2-((9aS)-hexahydropyrazino[2,1-c][1,4]oxazin-8(1H)-yl)ethyl)-7′-methoxy-11′,12′-dimethyl-3,4-dihydro-2H,15′H-spiro[naphthalene-1,22′-[20]oxa[13]thia[1,14]diazatetracyclo [14.7.2.0~3,6~.0~19,24~]pentacosa[8,16,18,24]tetraen]-15′-one 13′,13′-dioxide], the IC50 in experiment [1] (setting [3]) came to 1420 nM; in experiment [2] (setting [4]), 0.176 nM.

In the case of `C[C@@H]1[C@@H](C)CCC[C@@]2(COC(=O)O2)[C@@H]2CC[C@H]2CN2C[C@@]3(CCCc4cc(Cl)ccc43)COc3ccc(cc32)C(=O)NS1(=O)=O` [Example 100054, (3′R,4S,6′R,11′S,12′R,22′S)-6″-chloro-11′,12′-dimethyl-3″,4″-dihydro-2″H,15′H-dispiro[1,3-dioxolane-4,7′-[20]oxa[13]thia[1,14]diazatetracyclo [14.7.2.0~3,6~.0~19,24~]pentacosa[16,18,24]triene-22′,1″-naphthalene]-2,15′-dione 13′,13′-dioxide], the concentration for half-maximal inhibition (IC50) in experiment [1] (setting [3]) was 9060 nM; in experiment [2] (setting [4]) it was 4.11 nM.

Regarding `CO[C@@]1(C(C)(C)O)/C=C/C[C@H](C)[C@@H](C)S(=O)(=O)NC(=O)c2ccc3c(c2)N(C[C@@H]2CC[C@H]21)C[C@@]1(CCCc2cc(Cl)ccc21)CO3` [Example 100404, (1S,3′R,6′R,7′S,8′E,11′S,12′R)-6-chloro-7′-(2-hydroxy-2-propanyl)-7′-methoxy-11′,12′-dimethyl-3,4-dihydro-2H,15′H-spiro[naphthalene-1,22′-[20]oxa[13]thia[1,14]diazatetracyclo [14.7.2.0~3,6~.0~19,24~]pentacosa[8,16,18,24]tetraen]-15′-one 13′,13′-dioxide], the IC50 in experiment [1] (setting [3]) turned out to be 8150 nM; in experiment [2] (setting [4]), 2.55 nM.

As to `CC(C)[C@]1(O)/C=C/C[C@H](C)[C@@H](C)S(=O)(=O)NC(=O)c2ccc3c(c2)N(C[C@@H]2CC[C@H]21)C[C@@]1(CCCc2cc(Cl)ccc21)CO3` [Example 100208, (1S,3′R,6′R,7′S,8′E,11′S,12′R)-6-chloro-7′-hydroxy-11′,12′-dimethyl-7′-(2-propanyl)-3,4-dihydro-2H,15′H-spiro[naphthalene-1,22′-[20]oxa[13]thia[1,14]diazatetracyclo [14.7.2.0~3,6~.0~19,24~]pentacosa[8,16,18,24]tetraen]-15′-one 13′,13′-dioxide], the half-maximal inhibitory concentration (IC50) in experiment [1] (setting [3]) is 318 nM; in experiment [2] (setting [4]), 0.431 nM.

Source of the values: patent publication US10821115B2, “Compounds that inhibit Mcl-1 protein” (priority 2017, dated 2020).
